From patent US5811439A, “Thiazolidinedione derivatives, method for preparing the derivatives and pharmaceutical compositions containing same” (Senga Pharmaceutical Laboratory Inc., priority 1995, dated 1998)

Tested on: 3T3-L1 cells
Assay: Glucose-uptake test (2-DOG uptake) in 3T3-L1 cells
Assay type: cell-based
Details: 24 hours, cpm divided by amount of proteins
Method: Glucose-uptake tests as a means for screening compounds for the effect of reducing the blood sugar level were carried out according to the following procedures. 1) Cell: The following cells were used. 3T3-L1 (purchased from Dainippon Pharmaceutical Co. Ltd.) 2) Reagents: The following reagents were used. DMEM (GIBCO); FBS (GIBCO); […] DMSO: dimethylsulfoxide (Wako Pure Chemical Co., Ltd.); ACS2 (Amersham); urea (Wako Pure Chemical Co., Ltd.); protein-determining kit (Bio Rad Code No.). 3) Instrument: The following instrument was used in the test. 24-well plate (Falcon) 3T3-L1 cells were dispersed in a 10% FBS-containing DME medium in a cell concentration of 10000 cells/ml, the resulting cell suspension was dispensed into a 24-well plate in an amount of 1 ml per well and the cells were cultivated in a 5% CO2 -incubator at 37° C. for 5 days. After soaking up the medium in the wells, the plate was washed once with PBS in an amount of 2 ml/well. […] The cells were cultivated in a sample compound-containing medium at 37° C. for 24 hours in a 5%-CO2 -incubator. After the cultivation, the medium was soaked up and the plate was washed three times with 2 ml/well each of PBS. […] After washing with 2 ml/well of PBS, the PBS was sufficiently soaked up. […] The lysate was also inspected for the amount of proteins using 0.2 ml out of the rest of the lysate, according to the microassay method using a protein-determining kit.

Compound	2-DOG Uptake (%) at a concentration of 50 μg/ml [%]
Cl.O=C1NC(=O)C(Cc2cccc3c2ccn3Cc2ccccn2)S1 (stereo not drawn) [Example 337, 5-[1-(2-picolyl)indol-4-yl]methyl-2,4-thiazolidinedione hydrochloride]	181
O=C1NC(=O)C(Cc2cccc3c2ccn3Cc2ccccn2)S1 (stereo not drawn) [Example 133, 5-[1-(2-picolyl)indol-4-yl]methyl-2,4-thiazolidinedione]	240

Same assay, conditions: Mus musculus, 3T3-L1, 24 h, 50 μg/ml, cpm divided by amount of proteins, read-out: 2-DOG Uptake (%) at a concentration of 50 μg/ml

Compound	activity at 50 µg/mL [%]
N#Cc1cccc(Cn2cc(CC3SC(=O)NC3=O)c3ccccc32)c1 (stereo not drawn) [Example 283, 5-[1-(3-cyanobenzyl)indol-3-yl]methyl-2,4-thiazolidinedione]	232
O=C1NC(=O)C(Cc2cccc3c2ccn3Cc2ccc(C(F)(F)F)cc2)S1 (stereo not drawn) [Example 80, 5-[1-(4-trifluoromethylbenzyl)indol-4-yl]methyl-2,4-thiazolidinedione]	210
O=C1NC(=O)C(Cc2cccc3[nH]ccc23)S1 (stereo not drawn) [Example 150, 5-(indol-4-yl)methyl-2,4-thiazolidinedione]	191
O=C1NC(=O)C(Cc2cccc3c2ccn3S(=O)(=O)c2ccc(F)cc2)S1 (stereo not drawn) [Example 21, 5-[1-(4-fluorobenzenesulfonyl)indol-4-yl]-methyl-2,4-thiazolidinedione]	162
O=C1NC(=O)C(Cc2cccc3c2ccn3C(c2ccccc2)c2ccccc2)S1 (stereo not drawn) [Example 177, 5-[1-(benzhydryl)indol-4-yl]methyl-2,4-thiazolidinedione]	159
Cc1c(C)c2c(c(C)c1O)CCC(C)(COc1ccc(CC3SC(=O)NC3=O)cc1)O2 (racemic) [CS-045, (±)5-[4(6-hydroxy-2,5,7,8-tetramethylchroman-2-yl-methoxy)benzyl2,4-thazolidinedione, reference compound]	172
O=C1NC(=O)C(Cc2cn(Cc3cccc(F)c3)c3ccccc23)S1 (stereo not drawn) [Example 273, 5-[1-(3-fluorobenzyl)indol-3-yl]methyl-2,4-thiazolidinedione]	215
C=C(C)[C@@H]1CC=C(Cn2ccc3c(CC4SC(=O)NC4=O)cccc32)CC1 (stereo partly drawn) [Example 208, 5-[1-(4S-p-mentha-1,8-dien-7-yl)indol-4-yl]methyl-2,4-thiazolidinedione]	189
O=C1NC(=O)C(Cc2cccc3c2ccn3C2CCCCC2)S1 (stereo not drawn) [Example 180, 5-(1-cyclohexylindol-4-yl)methyl-2,4-thiazolidinedione]	232
O=C1NC(=O)C(Cc2cccc3c2ccn3Cc2ccc(F)c(F)c2)S1 (stereo not drawn) [Example 68, 5-[1-(3,4-difluorobenzyl)indol-4-yl]-methyl-2,4-thiazolidinedione]	202
O=C1NC(=O)C(Cc2cn(Cc3ccccc3)c3ccccc23)S1 (stereo not drawn) [Example 288, 5-(1-benzylindol-3-yl)methyl-2,4-thiazolidinedione]	209
O=C1NC(=O)C(Cc2cc3ccccc3n2Cc2ccccc2)S1 (stereo not drawn) [Example 312, 5-(1-benzylindol-2-yl)methyl-2,4-thiazolidinedione]	164
O=C1NC(=O)C(Cc2cccc3c2ccn3Cc2ccccc2C(F)(F)F)S1 (stereo not drawn) [Example 74, 5-[1-(2-trifluoromethylbenzyl)indol-4-yl]methyl-2,4-thiazolidinedione]	210
O=C1NC(=O)C(Cc2cccc3c2ccn3Cc2cc(C(F)(F)F)cc(C(F)(F)F)c2)S1 (stereo not drawn) [Example 214, 5-{1-[3,5-bis(trifluoromethyl)benzyl]indol-4-yl}methyl-2,4-thiazolidinedione]	185
O=C1NC(=O)C(Cc2cccc3c2ccn3Cc2cccc(C(F)(F)F)c2)S1 (stereo not drawn) [Example 77, 5-[1-(3-trifluoromethylbenzyl)indol-4-yl]methyl-2,4-thiazolidinedione]	185
Cc1oc(-c2ccccc2)nc1Cn1ccc2c(CC3SC(=O)NC3=O)cccc21 (stereo not drawn) [Example 32, 5-{1-[(5-methyl-2-phenyloxazol-4-yl)methyl]indol-4-yl}methyl-2,4-thiazolidinedione]	215
Nc1ccc(Cn2ccc3c(CC4SC(=O)NC4=O)cccc32)cc1 (stereo not drawn) [Example 190, 5-[1-(4-aminobenzyl)indol-4-yl]methyl-2,4-thiazolidinedione]	164
O=C1NC(=O)C(Cc2cccc3c2ccn3Cc2cccc(F)c2F)S1 (stereo not drawn) [Example 55, 5-[1-(2,3-difluorobenzyl)indol-4-yl]-methyl-2,4-thiazolidinedione]	180
Cc1cccc(Cn2ccc3c(CC4SC(=O)NC4=O)cccc32)c1 (stereo not drawn) [Example 115, 5-[1-(3-methylbenzyl)indol-4-yl]methyl-2,4-thiazolidinedione]	162
O=C1NC(=O)C(Cc2cn(Cc3cc(F)cc(F)c3)c3ccccc23)S1 (stereo not drawn) [Example 275, 5-[1-(3,5-difluorobenzyl)indol-3-yl]methyl-2,4-thiazolidinedione]	185

Compound	activity at 50 µg/mL [%]
O=C1NC(=O)C(Cc2cn(Cc3cc(F)ccc3F)c3ccccc23)S1 (stereo not drawn) [Example 250, 5-[1-(2,5-difluorobenzyl)indol-3-yl]methyl-2,4-thiazolidinedione]	209
COc1ccc(OC)c(Cn2ccc3c(CC4SC(=O)NC4=O)cccc32)c1 (stereo not drawn) [Example 98, 5-[1-(2,5-dimethoxybenzyl)indol-4-yl]methyl-2,4-thiazolidinedione]	180
CC(C)=CCCn1ccc2c(CC3SC(=O)NC3=O)cccc21 (stereo not drawn) [Example 165, 5-[1-(4-methyl-3-pentenyl)indol-4-yl]methyl-2,4-thiazolidinedione]	285
O=C1NC(=O)C(=Cc2cccc3c2ccn3Cc2ccc3ccccc3n2)S1 [Example 147, 5-{1-[(quinol-2-yl)methyl]indol-4-yl}methylene-2,4-thiazolidinedione]	156
CC#CCn1ccc2c(CC3SC(=O)NC3=O)cccc21 (stereo not drawn) [Example 168, 5-[1-(2-butynyl)indol-4-yl]methyl-2,4-thiazolidinedione]	172
COc1ccccc1Cn1ccc2c(CC3SC(=O)NC3=O)cccc21 (stereo not drawn) [Example 86, 5-[1-(2-methoxybenzyl)indol-4-yl]methyl-2,4-thiazolidinedione]	161
O=C1NC(=O)C(=Cc2cccc3c2ccn3Cc2ccccc2)S1 [Example 2, 5-(1-benzylindol-4-yl)methylene-2,4-thiazolidinedione]	182
COC(=O)c1ccc(Cn2ccc3c(C=C4SC(=O)NC4=O)cccc32)cc1 [Example 8, 5-[1-(4-methoxycarbonylbenzyl)indol-4-yl]methylene-2,4-thiazolidinedione]	172
O=C1NC(=O)C(Cc2cccc3c2ccn3Cc2cccc(F)c2)S1 (stereo not drawn) [Example 50, 5-[1-(3-fluorobenzyl)indol-4-yl]-methyl-2,4-thiazolidinedione]	201
O=C1NC(=O)C(Cc2cccc3c2ccn3CC(=O)c2ccccc2)S1 (stereo not drawn) [Example 187, 5-(1-phenacylindol-4-yl)methyl-2,4-thiazolidinedione]	174
CCCCCCn1ccc2c(C=C3SC(=O)NC3=O)cccc21 [Example 155, 5-(1-hexylindol-4-yl)methylene-2,4-thiazolidinedione]	233
Cc1ccc(S(=O)(=O)n2ccc3c(CC4SC(=O)NC4=O)cccc32)cc1 (stereo not drawn) [Example 24, 5-[1-(p-toluenesulfonyl)indol-4-yl]-methyl-2,4-thiazolidinedione]	186
O=C1NC(=O)C(=Cc2cccc3c2ccn3Cc2ccncc2)S1 [Example 5, 5-[1-(4-picolyl)indol-4-yl]methylene-2,4-thiazolidinedione]	227
O=C1NC(=O)C(Cc2cccc3c2ccn3Cc2cc(F)cc(F)c2)S1 (stereo not drawn) [Example 71, 5-[1-(3,5-difluorobenzyl)indol-4-yl]-methyl-2,4-thiazolidinedione]	250
COc1cccc(Cn2ccc3c(CC4SC(=O)NC4=O)cccc32)c1 (stereo not drawn) [Example 89, 5-[1-(3-methoxybenzyl)indol-4-yl]methyl-2,4-thiazolidinedione]	185
Cc1nc(Cn2ccc3c(CC4SC(=O)NC4=O)cccc32)cs1 (stereo not drawn) [Example 142, 5-{1-[(2-methylthiazol-4-yl)methyl]indol-4-yl}methyl-2,4-thiazolidinedione]	160
Cc1cccc(Cn2cc(CC3SC(=O)NC3=O)c3ccccc32)c1 (stereo not drawn) [Example 281, 5-[1-(3-methylbenzyl)indol-3-yl]methyl-2,4-thiazolidinedione]	244
N#Cc1ccc(Cn2ccc3c(CC4SC(=O)NC4=O)cccc32)cc1 (stereo not drawn) [Example 104, 5-[1-(4-cyanobenzyl)indol-4-yl]methyl-2,4-thiazolidinedione]	290
N#Cc1cccc(Cn2ccc3c(CC4SC(=O)NC4=O)cccc32)c1 (stereo not drawn) [Example 101, 5-[1-(3-cyanobenzyl)indol-4-yl]methyl-2,4-thiazolidinedione]	240
CC1(C)[C@H]2CC=C(Cn3ccc4c(CC5SC(=O)NC5=O)cccc43)[C@@H]1C2 (stereo partly drawn) [Example 199, 5-[1-(1S, 5S, 2-pinen-10-yl)indol-4-yl]methyl-2,4-thiazolidinedione]	206
